The values below come from US6552079B2, “Integrin antagonists” (Eli Lilly and Company, priority 1996, dated 2003).

Each structure is given as a SMILES string. Bounds are passed on as bounds.

Assay [1] addresses T1, vitronectin receptor, αvβ3 (Homo sapiens, UniProt P05106+P06756).
T1 construct: After purification, the receptors were each stored in 0.1% Triton X-100 at 0.1-1.0 mg/ml; from tissue
In words: αvβ3 ELISA purified integrin binding assay (vitronectin binding). Particulars: inhibition of biotinylated vitronectin binding to immobilized purified αvβ3. The protocol:
(§1) In the following assays, GPIIb-IIIa and vitronectin receptor, αvβ3 were prepared in purified form, by methods described in Fitzgerald, L. A., et al., Anal Biochem (1985) 151: 169-177 and Smith, J. W., J. Biol Chem (1988) 263: 18726-18731 (the disclosure of which is incorporated herein by reference). GPIIb-IIIa or vitronectin receptor, αvβ3, are coated onto microtiter plates. The coated support is then contacted with fibrinogen for the GPIIb-IIIa assay, or is contacted with vitronectin for the vitronectin receptor, αvβ3 and with test materials and incubated for sufficient time to reach maximal ligand binding to immobilized integrins. The adhesive ligands fibrinogen or vitronectin were typically provided at a concentration of 2-50 nM and the test material can, if desired, be added at a series of diultions. […]
(§2) The corresponding ligands (fibrinogen, von Willebrand Factor, or vitronectin) were conjugated to biotin using commercially available reagents and standard protocols. […] After incubation, the wells were aspirated to dryness and bound ligand containing biotin label was quantitated.
(§3) The bound protein was detected by the addition of anti-biotin antibody conjugated to alkaline phosphatase followed by addition of substrate (p-nitrophenyl […] phosphate), and determination of the optical density of each well at […].
(ELISA stands for enzyme-linked immunosorbent assay.)

Another assay concerns the target T2, GPIIb-IIIa (Homo sapiens, UniProt P05106+P08514).
T2 construct: Purified platelet GPIIb-IIIa was prepared by Fitzgerald, L. A., et al; from tissue; host or cells: platelets
In words: GPIIb-IIIa ELISA purified integrin binding assay (fibrinogen binding). The note with it: inhibition of biotinylated fibrinogen binding to immobilized purified platelet GPIIb-IIIa; read-out: GPIIbIIIa ELISA (IC50 μM). The protocol:
as §1, §2, §3

Assay [2] relates to ADP-induced aggregation of human platelets (PRP). Nature of the assay: Platelet aggregation assay (Aggregation-Human/PRP/ADP). The format is cell-based. Particulars: human platelet rich plasma, ADP 20 μM. As to the method:
In addition to the ELISA integrin binding assays described above, the Aggregation-Human/PRP/ADP Assay is useful for evaluating therapeutic compounds.
Platelet rich plasma (PRP) is prepared from healthy human volunteers for use in determining inhibition of platelet aggregation by compounds. Blood was collected via a 21 gauge butterfly cannula, using a two-syringe technique into 1/10 volume of […] trisodium citrate.
Platelet rich plasma was prepared at room temperature by centrifugation of the citrated whole blood at 100×g for 15 minutes. The PRP contained approximately 200-400,000 platelets/μl. Platelet poor plasma was prepared by centrifugation of citrated whole blood at 12,000×g for 2 minutes.
Platelet aggregation was assayed in a Chrono-log whole blood aggregometer (Chrono-log Corporation, Havertown, Pa.) using the PRP prepared above according to the manufacturers directions. Inhibition of platelet aggregation was studied by adding varying amounts of test materials followed by adenosine diphosphate (ADP, 20 μM) to stirred human PRP. Specifically, the human PRP was incubated with the compound for 1-2 min. at 37° C. prior to addition of the aggregating agent ADP.

T2 sequence (P08514 32-887 limits assumed): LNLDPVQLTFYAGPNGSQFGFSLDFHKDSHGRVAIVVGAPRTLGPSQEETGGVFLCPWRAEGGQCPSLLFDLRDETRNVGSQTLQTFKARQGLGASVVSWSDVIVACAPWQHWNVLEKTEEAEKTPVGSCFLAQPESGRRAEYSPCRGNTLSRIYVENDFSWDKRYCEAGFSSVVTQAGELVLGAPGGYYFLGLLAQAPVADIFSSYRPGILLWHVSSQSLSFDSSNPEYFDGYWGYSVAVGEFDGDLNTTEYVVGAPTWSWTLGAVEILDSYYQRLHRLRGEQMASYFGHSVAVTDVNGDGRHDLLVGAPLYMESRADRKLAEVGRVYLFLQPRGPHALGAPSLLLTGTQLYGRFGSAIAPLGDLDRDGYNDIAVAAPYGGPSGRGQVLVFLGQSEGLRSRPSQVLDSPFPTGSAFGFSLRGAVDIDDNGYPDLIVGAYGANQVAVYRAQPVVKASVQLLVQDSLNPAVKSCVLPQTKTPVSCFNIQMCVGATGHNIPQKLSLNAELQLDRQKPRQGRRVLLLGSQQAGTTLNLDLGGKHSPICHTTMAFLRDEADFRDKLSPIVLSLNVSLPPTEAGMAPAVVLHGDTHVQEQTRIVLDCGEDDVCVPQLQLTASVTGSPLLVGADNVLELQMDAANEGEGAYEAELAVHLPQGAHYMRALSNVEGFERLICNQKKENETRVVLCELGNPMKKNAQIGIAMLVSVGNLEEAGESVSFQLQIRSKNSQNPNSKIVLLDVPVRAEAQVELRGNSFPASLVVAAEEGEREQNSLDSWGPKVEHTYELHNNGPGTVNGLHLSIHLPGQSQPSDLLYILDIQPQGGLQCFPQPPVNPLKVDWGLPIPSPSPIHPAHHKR
T2 sequence (P08514 891-1039 partner limits assumed): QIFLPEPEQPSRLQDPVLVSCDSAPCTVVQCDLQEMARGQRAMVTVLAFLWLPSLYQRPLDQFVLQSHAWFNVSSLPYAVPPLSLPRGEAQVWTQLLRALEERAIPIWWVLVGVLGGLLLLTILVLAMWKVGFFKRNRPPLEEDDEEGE
T2 sequence (P05106 27-788): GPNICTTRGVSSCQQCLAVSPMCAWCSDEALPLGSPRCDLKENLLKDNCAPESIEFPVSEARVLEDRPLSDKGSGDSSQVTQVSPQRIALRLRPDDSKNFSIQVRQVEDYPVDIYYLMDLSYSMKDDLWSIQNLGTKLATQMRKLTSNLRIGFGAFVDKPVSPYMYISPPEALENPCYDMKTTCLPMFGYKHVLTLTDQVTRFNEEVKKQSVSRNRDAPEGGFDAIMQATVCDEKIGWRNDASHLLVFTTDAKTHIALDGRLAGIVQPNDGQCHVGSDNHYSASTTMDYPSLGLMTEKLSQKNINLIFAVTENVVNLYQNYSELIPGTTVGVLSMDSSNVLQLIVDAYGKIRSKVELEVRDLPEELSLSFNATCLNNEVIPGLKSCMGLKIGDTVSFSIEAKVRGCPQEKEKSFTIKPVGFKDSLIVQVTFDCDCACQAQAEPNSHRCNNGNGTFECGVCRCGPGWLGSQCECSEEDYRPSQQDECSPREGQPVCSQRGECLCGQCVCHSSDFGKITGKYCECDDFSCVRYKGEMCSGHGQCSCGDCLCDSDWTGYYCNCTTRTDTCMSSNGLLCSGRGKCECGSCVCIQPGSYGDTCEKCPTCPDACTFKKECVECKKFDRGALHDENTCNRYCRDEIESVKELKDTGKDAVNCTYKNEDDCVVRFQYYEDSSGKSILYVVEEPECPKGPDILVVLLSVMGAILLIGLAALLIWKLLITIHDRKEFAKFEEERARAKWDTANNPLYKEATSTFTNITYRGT
T1 sequence (P06756 31-889 limits assumed): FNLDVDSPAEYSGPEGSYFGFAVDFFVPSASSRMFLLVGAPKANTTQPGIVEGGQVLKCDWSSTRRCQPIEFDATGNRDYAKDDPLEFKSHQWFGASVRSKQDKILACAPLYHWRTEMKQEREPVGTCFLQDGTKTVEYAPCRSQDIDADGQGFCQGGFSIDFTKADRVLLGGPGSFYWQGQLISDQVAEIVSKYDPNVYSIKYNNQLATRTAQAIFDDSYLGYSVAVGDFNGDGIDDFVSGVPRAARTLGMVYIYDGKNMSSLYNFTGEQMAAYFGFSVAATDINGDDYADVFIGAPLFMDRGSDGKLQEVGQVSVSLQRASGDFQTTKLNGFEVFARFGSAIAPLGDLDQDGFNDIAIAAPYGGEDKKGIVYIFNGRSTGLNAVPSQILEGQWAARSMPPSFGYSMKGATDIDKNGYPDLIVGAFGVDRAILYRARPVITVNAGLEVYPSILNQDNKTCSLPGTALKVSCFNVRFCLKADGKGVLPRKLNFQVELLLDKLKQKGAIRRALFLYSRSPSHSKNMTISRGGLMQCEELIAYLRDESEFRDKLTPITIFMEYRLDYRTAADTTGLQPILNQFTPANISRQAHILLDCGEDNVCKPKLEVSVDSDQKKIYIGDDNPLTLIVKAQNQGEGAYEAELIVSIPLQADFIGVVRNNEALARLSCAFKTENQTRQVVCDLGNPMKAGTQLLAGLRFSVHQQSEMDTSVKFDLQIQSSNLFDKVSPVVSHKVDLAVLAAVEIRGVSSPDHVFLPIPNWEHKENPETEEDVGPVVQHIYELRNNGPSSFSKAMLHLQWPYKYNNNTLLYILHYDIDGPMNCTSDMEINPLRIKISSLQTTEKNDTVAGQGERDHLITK
T1 sequence (P06756 891-1048 partner limits assumed): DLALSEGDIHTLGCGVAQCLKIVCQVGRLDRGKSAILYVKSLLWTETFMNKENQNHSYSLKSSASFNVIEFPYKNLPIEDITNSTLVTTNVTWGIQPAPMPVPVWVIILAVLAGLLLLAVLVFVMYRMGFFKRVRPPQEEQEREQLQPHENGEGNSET
T1 sequence (P05106 27-788): as the sequence (P05106 27-788) above

The IC50 is the midpoint of a concentration-inhibition curve. Turning to `O=C(CNC(=O)C1CCNCC1)NCC(NS(=O)(=O)c1ccccc1)C(=O)O` (stereo not drawn) [Compound 16], the IC50 in assay [1] was above 100 µM; at GPIIb-IIIa it was 5 µM; in assay [2], 49.3 µM.
